Results published in patent publication US7662842B2, “Thiazolidinone amides, thiazolidine carboxylic acid amides, and serine amides, including polyamine conjugates thereof, as selective anti-cancer agents” (Ohio State Univesity Research Foundation, priority 2003, dated 2010).
pIC50: −log10 of the molar value.

Experiments:
[1] = tested on: WM-164 cells; assay: Sulforhodamine B assay in melanoma cells, WM-164; format: cell-based; details: Homo sapiens, WM164, read-out: IC50 WM-164; SRB assay, 48 h incubation; melanoma cell line
Procedure: (§1) SKMEL-188 cells were cultured in Ham's F10 medium (Gibco Invitrogen, Inc., Grand Island, N.Y.) plus 5% fetal bovine serum (Cellgro Mediatech, Inc., Herndon, Va.) and 1% antibiotic/antimycotic mixture (Sigma-Aldrich, Inc., St. Louis, Mo.). WM-164 cells (gift of Dr. Meenhard Herlyn, Wistar Inst., Philadelphia, Pa.) and human dermal fibroblasts (Cascade Biologics, Inc., Portland, Oreg.) were cultured in DMEM medium (Cellgro Mediatech, Inc.) supplemented with 5% fetal bovine serum, 1% antibiotic.antimycotic mixture and bovine insulin ([…], Sigma-Aldrich, Inc.). Human dermal fibroblasts were used as a control to examine the effects of compounds on stromal environment. Thus, the effect of the various compounds on melanoma cells versus fibroblasts would document their potential selectivity.
(§2) Sulforhodamine B Assay: Cells were seeded into 96-well plates at 5000 cells/well. After 12 hours, media were changed and serial dilutions of compounds were added. Cells were incubated with each compound for 48 hours. Fresh media containing the test compound were changed ever 24 hours. Thereafter, total cell protein corresponding to cell numbers (both viable and non-viable cells) were measured using the sulforhodamine B (SRB) assay according to manufacturer's protocol (Sigma-Aldrich, Inc.) (Rubinstein et al., “Comparison of in vitro Anticancer Drug-screening Data Generated with a Tetrazolium Assay Versus a Protein Assay Against a Diverse Panel of Human Tumor Cell Lines,” J. Natl. Cancer Inst. 82:1113-1118 (1990); Dothager et al., “Synthesis and Identification of Small Molecules that Potently Induce Apoptosis in Melanoma Cells Through GI Cell Cycle Arrest,” J. Am. Chem. Soc. 127:8686-8696 (2005), each of which is hereby incorporated by reference in its entirety). Briefly, cells were fixed with trichloracetic acid, washed and incubated with sulforhodamine B for 30 minutes. After another wash, dye incorporated into the cells was solubilized and measured using a plate reader at 565 nm.
(§3) Statistical Analysis: Data is presented as mean±SEM (n=6-8). […] Statistical analyses were performed with Student's t-test (*p<0.05; **p<0.005).
(§4) DTIC and Taxol were assayed in the same way for comparison and served as internal quality controls in the different batches of assay. For comparison, the activities of 5R and 5S were measured.

[2] = tested on: SKMEL-188 melanoma cells; assay: Sulforhodamine B assay in melanoma cells, SKMEL-188; format: cell-based; details: SK-MEL-188, 48 h, SRB assay, 48 h incubation; melanoma cell line
Procedure: as §1, §2, §3, §4

[3] = tested on: SKMEL-188 and WM-164 cell lines; assay: SRB assay, statements on both melanoma cell lines; format: cell-based
Procedure: Louis, Mo.). WM-164 cells (gift of Dr. Meenhard Herlyn, Wistar Inst., Philadelphia, Pa.) and human dermal fibroblasts (Cascade Biologics, Inc., Portland, Oreg.) were cultured in DMEM medium (Cellgro Mediatech, Inc.) supplemented with 5% fetal bovine serum, 1% antibiotic.antimycotic mixture and bovine insulin ([…], Sigma-Aldrich, Inc.). Human dermal fibroblasts were used as a control to examine the effects of compounds on stromal environment. Thus, the effect of the various compounds on melanoma cells versus fibroblasts would document their potential selectivity. Sulforhodamine B Assay: Cells were seeded into 96-well plates at 5000 cells/well. After 12 hours, media were changed and serial dilutions of compounds were added. Cells were incubated with each compound for 48 hours. Fresh media containing the test compound were changed ever 24 hours. Thereafter, total cell protein corresponding to cell numbers (both viable and non-viable cells) were measured using the sulforhodamine B (SRB) assay according to manufacturer's protocol (Sigma-Aldrich, Inc.) (Rubinstein et al., “Comparison of in vitro Anticancer Drug-screening Data Generated with a Tetrazolium Assay Versus a Protein Assay Against a Diverse Panel of Human Tumor Cell Lines,” J. Natl. Cancer Inst. 82:1113-1118 (1990); Dothager et al., “Synthesis and Identification of Small Molecules that Potently Induce Apoptosis in Melanoma Cells Through GI Cell Cycle Arrest,” J. Am. Chem. Soc. 127:8686-8696 (2005), each of which is hereby incorporated by reference in its entirety). Briefly, cells were fixed with trichloracetic acid, washed and incubated with sulforhodamine B for 30 minutes. After another wash, dye incorporated into the cells was solubilized and measured using a plate reader at 565 nm. Statistical Analysis: Data is presented as mean±SEM (n=6-8). […] Statistical analyses were performed with Student's t-test (*p<0.05; **p<0.005). […] DTIC and Taxol were assayed in the same way for comparison and served as internal quality controls in the different batches of assay. For comparison, the activities of 5R and 5S were measured.

[4] = tested on: PC-3 cells; assay: Apoptosis sandwich ELISA (DNA-histone complex), PC-3; format: cell-based, human
Procedure: (§5) For in vitro cytotoxicity screening, 1000 to 5000 cells were plated into each well of 96-well plates depending on growth rate, and exposed to different concentrations of a test compound for 96 h in three to five replicates. All the compounds were dissolved in dimethyl sulfoxide at 5 to 20 mM, and diluted to desired concentrations in complete culture medium. Cell numbers at the end of the drug treatment were measured by the SRB assay (Gududuru et al., “Synthesis and Biological Evaluation of Novel Cytotoxic Phospholipids for Prostate Cancer,” Bioorg. Med. Chem. Lett. 14:4919-4923 (2004); Rubinstein et al., “Comparison of in vitro Anticancer-Drug-Screening Data Generated with a Tetrazolium Assay Versus a Protein Assay Against a Diverse Panel of Human Tumor Cell Lines,” J. Natl. Cancer Inst. 82:1113-1118 (1990), each of which is hereby incorporated by reference in its entirety). Briefly, the cells were fixed with 10% of trichloroacetic acid, stained with 0.4% SRB, and the absorbances at 540 nm was measured using a plate reader (DYNEX Technologies, Chantilly, Va.). […] A sandwich ELISA (Roche, Mannheim, Germany) utilizing monoclonal antibodies specific for DNA and histones was used to quantify degree of apoptosis induced by the analogs after 72 h exposure. This assay measures DNA-histone complexes (mono- and oligonucleosomes) released into cytoplasm from the nucleus during apoptosis. RH7777 cells were employed because of nonspecific cytotoxicity of compound 4 in receptor-negative cells as well as receptor-positive prostate cancer cells.
(§6) From the LPL receptor mRNA expression studies (Table 2), it was evident that these cell lines serve as an excellent model system to explore the effects of LPL receptor. Given the structural similarity of SAPs to ceramide (and the known ability of ceramide to induce apoptosis), it was then determined whether the antiproliferative effects of thiazolidine analogs were mediated via apoptotic events. The ability of the analogs to induce apoptosis in LNCaP, PC-3, and RH7777 cells was examined using a quantitative sandwich ELISA that measures DNA-histone complex released during apoptosis. The enrichment factor calculated (as ratio of OD405 in treated and un-treated cells) provides a quantitative assessment of the degree of apoptosis induced. Initially, only two compounds (4 & 5) were used for this study. Apoptotic activity of analog (compound 4) was selective in prostate cancer cells despite nonselective cytotoxicity in RH7777 negative control cells (see Table 5 below). Analog compound 5 induced apoptosis in PC-3 and LNCaP cells, but to a lesser extent in PC-3 cells perhaps due to lower potency in this cell line.

[5] = tested on: human dermal fibroblasts; assay: Sulforhodamine B assay, fibroblast control cells; format: cell-based; details: Homo sapiens, Fibroblast, 48 h, SRB assay, 48 h incubation
Procedure: as §1, §2, §3, §4

[6] = tested on: LNCaP cells; assay: Apoptosis sandwich ELISA (DNA-histone complex), LNCaP; format: cell-based, human
Procedure: as §5, §6

[7] = tested on: LNCaP human prostate cancer cells; assay: SRB cytotoxicity assay, LNCaP; format: cell-based; details: Homo sapiens, LNCaP, 96 h exposure, prostate cancer cell line
Procedure: (§7) For in vitro cytotoxicity screening, 1000 to 5000 cells were plated into each well of 96-well plates depending on growth rate, and exposed to different concentrations of a test compound for 96 h in three to five replicates. All the compounds were dissolved in dimethyl sulfoxide at 5 to 20 mM, and diluted to desired concentrations in complete culture medium. Cell numbers at the end of the drug treatment were measured by the SRB assay (Gududuru et al., “Synthesis and Biological Evaluation of Novel Cytotoxic Phospholipids for Prostate Cancer,” Bioorg. Med. Chem. Lett. 14:4919-4923 (2004); Rubinstein et al., “Comparison of in vitro Anticancer-Drug-Screening Data Generated with a Tetrazolium Assay Versus a Protein Assay Against a Diverse Panel of Human Tumor Cell Lines,” J. Natl. Cancer Inst. 82:1113-1118 (1990), each of which is hereby incorporated by reference in its entirety). Briefly, the cells were fixed with 10% of trichloroacetic acid, stained with 0.4% SRB, and the absorbances at 540 nm was measured using a plate reader (DYNEX Technologies, Chantilly, Va.). […] A sandwich ELISA (Roche, Mannheim, Germany) utilizing monoclonal antibodies specific for DNA and histones was used to quantify degree of apoptosis induced by the analogs after 72 h exposure. This assay measures DNA-histone complexes (mono- and oligonucleosomes) released into cytoplasm from the nucleus during apoptosis.

[8] = tested on: OVCAR-3 human ovarian cancer cell line; assay: SRB cytotoxicity assay, OVCAR-3; format: cell-based
Procedure: as §5
(§8) In vitro cytotoxicity assay was performed by the same sulforhodamine B (SRB) assay (described above). The compounds shown in Table 8 below where tested for activity against the breast cancer and ovarian cancer cell lines.

[9] = tested on: PC-3 human prostate cancer cells; assay: SRB cytotoxicity assay, PC-3; format: cell-based; details: Homo sapiens, 96 h exposure, prostate cancer cell line
Procedure: as §7

[10] = tested on: DU-145 human prostate cancer cells; assay: SRB cytotoxicity assay, DU-145; format: cell-based; details: Homo sapiens, DU-145, read-out: IC50 DU-145, 96 h exposure, prostate cancer cell line
Procedure: as §7

[11] = tested on: CaOv-3 human ovarian cancer cell line; assay: SRB cytotoxicity assay, CaOv-3; format: cell-based
Procedure: as §5, §8

[12] = tested on: RH7777 rat hepatoma cells; assay: SRB cytotoxicity assay, RH7777 control cell line; format: cell-based; details: for pIC50: Rattus norvegicus, RH7777, SRB assay, 96 h exposure, control cell line
Procedure: as §7

[13] = tested on: PPC-1 human prostate cancer cells; assay: SRB cytotoxicity assay, PPC-1; format: cell-based; details: Homo sapiens, PPC-1, 96 h exposure, prostate cancer cell line
Procedure: (§9) Dr. Mitchell Steiner at University of Tennessee Health Science Center, kindly provided PPC-1 and TSU-Pr1 cells.
as §7

[14] = tested on: SKOv-3 human ovarian cancer cell line; assay: SRB cytotoxicity assay, SKOv-3; format: cell-based; details: SK-OV-3
Procedure: as §5, §8

[15] = tested on: TSU-Pr1 human prostate cancer cells; assay: SRB cytotoxicity assay, TSU-Pr1; format: cell-based; details: Homo sapiens, TSU-Pr1, 96 h exposure, prostate cancer cell line
Procedure: as §9, §7

Row | pIC50 [1] | pIC50 [2] | melting point [°C] | SMILES | pIC50 [5] | pIC50 [7] | pIC50 [8] | pIC50 [9] | pIC50 [10] | pIC50 [11] | pIC50 [12] | pIC50 [13] | pIC50 [14] | pIC50 [15] | other results
1 | < 4.00 | < 4.00 | – | CN(C)/N=N/c1[nH]cnc1C(N)=O [DTIC, dacarbazine, reference compound] | – | – | – | – | – | – | – | – | – | – | pIC50 ([3]; 48 h, read-out: IC50 against both melanoma cell lines): < 4.00
2 | 4.74 | 4.62 | – | CCCCCCCCCCCCCCCCCCNC(=O)[C@H]1CSC(c2ccccc2)N1 (stereo partly drawn) [5(S), (4S)—N-octadecyl-2-phenylthiazolidine-4-carboxamide] | 4.56 | – | – | – | – | – | – | – | – | – | Apoptosis enrichment factor (ratio of OD405 in treated and un-treated cells), PC-3 ([4]; 2 μM for 72 h): 1.1; Apoptosis enrichment factor (ratio of OD405 in treated and un-treated cells), PC-3 ([4]; 5 μM for 72 h): 1.2; Apoptosis enrichment factor (ratio of OD405 in treated and un-treated cells), PC-3 ([4]; 10 μM for 72 h): 1.4; Apoptosis enrichment factor (ratio of OD405 in treated and un-treated cells), PC-3 ([4]; 20 μM for 72 h): 2.7; Apoptosis enrichment factor (ratio of OD405 in treated and un-treated cells), LNCaP ([6]; 2 μM for 72 h): 3.1; Apoptosis enrichment factor (ratio of OD405 in treated and un-treated cells), LNCaP ([6]; 5 μM for 72 h): 5.4; Apoptosis enrichment factor (ratio of OD405 in treated and un-treated cells), LNCaP ([6]; 10 μM for 72 h): 25.8; Apoptosis enrichment factor (ratio of OD405 in treated and un-treated cells), LNCaP ([6]; 20 μM for 72 h): 46.8; Induction of apoptosis in LNCaP and PC-3 cells ([6]; LNCaP and PC-3 cells, lesser extent in PC-3): significantly induced apoptosis
3 | – | – | 50 | CCCCCCCCCCCCCCCCCCNC(=O)[C@@H]1CSC(c2cccc(O)c2)N1 (mixture of isomers) [Compound 14, (2RS, 4R)-2-(3-Hydroxy-phenyl)-thiazolidine-4-carboxylic acid octadecylamide] | – | 5.77 | 5.09 | 5.17 | 5.24 | 4.74 | 4.51 | 5.92 | 4.96 | 5.40 | –
4 | 5.21 | 5.42 | – | CC(=O)O[C@H]1C(=O)[C@@]2(C)[C@H]([C@H](OC(=O)c3ccccc3)[C@]3(O)C[C@H](OC(=O)[C@H](O)[C@@H](NC(=O)c4ccccc4)c4ccccc4)C(C)=C1C3(C)C)[C@]1(OC(C)=O)CO[C@@H]1C[C@@H]2O [Taxol, reference compound] | < 5.00 | – | – | – | – | – | – | – | – | – | Killing of melanoma cells (cytostatic versus cytotoxic) ([3]; higher concentrations): not effective in killing the cells
5 | – | – | – | CCCCCCCCCCCCCCCCCCNC(=O)C1CSC(c2ccoc2)N1 (stereo not drawn) [Compound 12, 2-(furan-3-yl)-N-octadecylthiazolidine-4-carboxamide] | – | 5.77 | 5.64 | 5.09 | 5.18 | 5.11 | 4.98 | 5.96 | 5.27 | 5.38 | Fold less selective against RH7777 cell line than compound 5 ([12]; relative to compound 5): 3 fold
6 | 5.51 | 5.62 | 103 | CCCCCCCCCCCCCCCCCCNC(=O)[C@@H]1CSC(c2ccc(OC)c(OC)c2)N1.Cl (mixture of isomers) [Compound 16, (2RS, 4R)-2-(3,4-Dimethoxy-phenyl)-thiazolidine-4-carboxylic acid octadecylamide Hydrochloride] | < 5.00 | 6.07 | 5.92 | – | 5.35 | 5.26 | 4.99 | 6.24 | 5.44 | 5.62 | –
